Here are results for 18 compounds from patent US20230091225A1, “Bifunctional chimeric heterocyclic compounds for targeted degradation of androgen receptors and use thereof” (HINOVA PHARMACEUTICALS INC., priority 2019, published 2023).

A value given as a limit tells only on which side of the number the result lay.

In the experiment the target is T1, androgen receptor (AR) (Homo sapiens, UniProt P10275).
T1 sequence (P10275 1-920): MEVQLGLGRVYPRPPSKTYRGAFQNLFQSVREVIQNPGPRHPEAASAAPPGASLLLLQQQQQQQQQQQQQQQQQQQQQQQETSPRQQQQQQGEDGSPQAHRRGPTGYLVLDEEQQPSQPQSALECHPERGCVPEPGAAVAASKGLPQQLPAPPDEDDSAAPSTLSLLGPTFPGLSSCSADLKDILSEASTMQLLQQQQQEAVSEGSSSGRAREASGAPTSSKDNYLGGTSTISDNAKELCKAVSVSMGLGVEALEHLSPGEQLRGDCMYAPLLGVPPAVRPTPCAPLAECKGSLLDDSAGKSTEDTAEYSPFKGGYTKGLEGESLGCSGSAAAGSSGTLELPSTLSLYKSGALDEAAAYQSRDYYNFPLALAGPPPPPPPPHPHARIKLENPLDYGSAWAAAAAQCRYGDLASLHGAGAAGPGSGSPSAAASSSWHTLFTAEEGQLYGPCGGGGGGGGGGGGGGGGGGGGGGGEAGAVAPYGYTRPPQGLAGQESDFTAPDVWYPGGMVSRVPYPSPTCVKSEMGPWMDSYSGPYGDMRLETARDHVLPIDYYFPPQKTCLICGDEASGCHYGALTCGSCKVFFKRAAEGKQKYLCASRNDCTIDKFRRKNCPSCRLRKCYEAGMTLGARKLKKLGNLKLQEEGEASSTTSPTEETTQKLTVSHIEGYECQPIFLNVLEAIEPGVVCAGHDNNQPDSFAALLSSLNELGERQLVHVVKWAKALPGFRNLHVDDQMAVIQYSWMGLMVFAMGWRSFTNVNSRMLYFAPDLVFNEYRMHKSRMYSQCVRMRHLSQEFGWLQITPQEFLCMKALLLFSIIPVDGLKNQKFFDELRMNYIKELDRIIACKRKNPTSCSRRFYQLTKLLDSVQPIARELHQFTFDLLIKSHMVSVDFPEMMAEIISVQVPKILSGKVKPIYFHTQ
Kind of experiment: Degradation of androgen receptor (AR) protein in VCaP cells by Western blot. The class given is cell-based. The note with it: percentage of degraded AR at 100 nM, VCaP cells, 16 h. In outline:
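VCaP cells (5×10^5/well) were seeded overnight, then treated in duplicate for 16 h with compound in 0.1% DMSO final. Lysates (30 μg protein) were immunoblotted for AR (D6F11) with β-actin as loading control, detected by ECL chemiluminescence.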
For orientation: A western blot detects proteins with antibodies after separation by electrophoresis.

A word on the inhibition: it is the share of the control response that was lost under treatment. The compound `N#Cc1ccc(O[C@H]2CC[C@H](NC(=O)c3ccc(N4CCN([C@@H]5C[C@@H]6CN(c7cc8c(cc7F)C(=O)N(C7CCC(=O)NC7=O)C8=O)C[C@@H]6C5)CC4)nn3)CC2)cc1Cl` (stereo partly drawn) [Compound 297, N-((1r,4r)-4-(3-chloro-4-cyanophenoxy)cyclohexyl)-6-(4-((3aR,5R,6aS)-2-(2-(2,6-dioxopiperidin-3-yl)-6-fluoro-1,3-dioxoisoindolin-5-yl)octahydrocyclopenta[c]pyrrol-5-yl)piperazin-1-yl)pyridazine-3-formamide] gave an inhibition at 0.1 µM of 25 to 49%.
Compound `N#Cc1ccc(O[C@H]2CC[C@H](NC(=O)c3ccc(N4CCN([C@@H]5C[C@@H]6CN(c7ccc8c(c7)C(=O)N(C7CCC(=O)NC7=O)C8=O)C[C@@H]6C5)CC4)nn3)CC2)cc1Cl` (stereo partly drawn) [Compound 298, N-((1r,4r)-4-(3-chloro-4-cyanophenoxy)cyclohexyl)-6-(4-((3aR,5R,6aS)-2-(2-(2,6-dioxopiperidin-3-yl)-1,3-dioxoisoindolin-5-yl)octahydrocyclopenta[c]pyrrol-5-yl)piperazin-1-yl)pyridazine-3-formamide] gave an inhibition at 0.1 µM of under 25%.
Turning to `N#Cc1ccc(O[C@H]2CC[C@H](NC(=O)c3cnc(N4CCN([C@@H]5C[C@@H]6CN(c7cc8c(cc7F)C(=O)N(C7CCC(=O)NC7=O)C8=O)C[C@@H]6C5)CC4)nc3)CC2)cc1Cl` (stereo partly drawn) [Compound 299, N-((1r,4r)-4-(3-chloro-4-cyanophenoxy)cyclohexyl)-2-(4-((3aR,5R,6aS)-2-(2-(2,6-dioxopiperidin-3-yl)-6-fluoro-1,3-dioxoisoindolin-5-yl)octahydrocyclopenta[c]pyrrol-5-yl)piperazin-1-yl)pyrimidine-5-formamide], the inhibition at 0.1 µM is under 25%.
Under `N#Cc1ccc(O[C@H]2CC[C@H](NC(=O)c3cnc(N4CCN([C@@H]5C[C@@H]6CN(c7ccc8c(c7)C(=O)N(C7CCC(=O)NC7=O)C8=O)C[C@@H]6C5)CC4)nc3)CC2)cc1Cl` (stereo partly drawn) [Compound 300, N-((1r,4r)-4-(3-chloro-4-cyanophenoxy)cyclohexyl)-2-(4-((3aR,5R,6aS)-2-(2-(2,6-dioxopiperidin-3-yl)-1,3-dioxoisoindolin-5-yl)octahydrocyclopenta[c]pyrrol-5-yl)piperazin-1-yl)pyrimidine-5-carboxamide] stands under 25%.
`N#Cc1ccc(O[C@H]2CC[C@H](NC(=O)c3cnc(N4CCN(C(=O)O[C@H]5C[C@@H]6CN(c7ccc8c(c7)C(=O)N(C7CCC(=O)NC7=O)C8=O)C[C@@H]6C5)CC4)cn3)CC2)cc1Cl` (stereo partly drawn) [Compound 301] yielded an inhibition at 0.1 µM of 50 to 79%.
For the compound `N#Cc1ccc(O[C@H]2CC[C@H](NC(=O)c3ccc(N4CCC(NC5CCN(c6ccc7c(c6)C(=O)N(C6CCC(=O)NC6=O)C7=O)CC5)CC4)cc3)CC2)cc1Cl` (stereo partly drawn) [Compound 302, N-((1r,4r)-4-(3-chloro-4-cyanophenoxy)cyclohexyl)-4-(4-((1-(2-(2,6-dioxopiperidin-3-yl)-1,3-dioxoisoindolin-5-yl)piperidine-4-yl)amino)piperidin-1-yl)benzamide], the inhibition at 0.1 µM is under 25%.
Under `N#Cc1ccc(O[C@H]2C[C@H]3C[C@@H](NC(=O)c4cnc(N5CCC(CN6CCN(c7ccc8c(c7)C(=O)N(C7CCC(=O)NC7=O)C8=O)CC6)CC5)cn4)C[C@H]3C2)cc1Cl` (stereo partly drawn) [Compound 303, N-((2s,3aR,5R,6aS)-5-(3-chloro-4-cyanophenoxy)octahydropenten-2-yl)-5-(4-((4-(2-(2,6-dioxopiperidin-3-yl)-1,3-dioxoisoindolin-5-yl)piperazin-1-yl)methyl)piperidin-1-yl)piperazine-2-carboxamide] stands under 25%; under `CC1(C)[C@H](Oc2ccc(C#N)c(Cl)c2)C(C)(C)[C@H]1N1Cc2nc(C#CC3CCN(C4CCN(c5ccc6c(c5)C(=O)N(C5CCC(=O)NC5=O)C6=O)CC4)CC3)ccc2C1=O` (stereo partly drawn) [Compound 315, 2-chloro-4-((1r,3r)-3-(2-((1′-(2-(2,6-dioxopiperidin-3-yl)-1,3-dioxoisoindolin-5-yl)-[1,4′-dipiperidine]4-yl)ethynyl)-5-oxo-5,7-dihydro-6H-pyrrolo[3,4-b]pyridin-6-yl)-2,2,4,4-tetramethylcyclobutoxy)benzonitrile], under 25%; under `CC1(C)[C@H](Oc2ccc(C#N)c(Cl)c2)C(C)(C)[C@H]1N1Cc2nc(C#CC3CCN(C4CCN(c5cc6c(cc5F)C(=O)N(C5CCC(=O)NC5=O)C6=O)CC4)CC3)ccc2C1=O` (stereo partly drawn) [Compound 316], 25 to 49%.
`CC1(C)[C@H](Oc2ccc(C#N)c(Cl)c2)C(C)(C)[C@H]1N1Cc2nc(C#CC3CCN(C4CN(c5ccc6c(c5)C(=O)N(C5CCC(=O)NC5=O)C6=O)C4)CC3)ccc2C1=O` (stereo partly drawn) [Compound 317, 2-Chloro-4-((1r,3r)-3-(2-((1-(1-(2-(2,6-dioxopiperidin-3-yl)-6-fluoro-1,3-dioxoisoindolin-5-yl)azitidin-3-yl)piperidine-4-yl)ethynyl)-5-oxo-5H-pyrrolino [3,4-b]pyridin-6(7H)-yl)-2,2,4,4-tetramethylcyclobutoxy)benzonitrile] came in with an inhibition at 0.1 µM of 50 to 79%.
In the case of `CC1(C)[C@H](Oc2ccc(C#N)c(Cl)c2)C(C)(C)[C@H]1N1Cc2nc(C#CC3CCN(C4CN(c5cc6c(cc5F)C(=O)N(C5CCC(=O)NC5=O)C6=O)C4)CC3)ccc2C1=O` (stereo partly drawn) [Compound 318, 2-Chloro-4-((1r,3r)-3-(2-((1-(1-(2-(2,6-dioxopiperidin-3-yl)-6-fluoro-1,3-dioxoisoindolin-5-yl)azitidin-3-yl)piperidine-4-yl)ethynyl)-5-oxo-5H-pyrrolino [3,4-b]pyridin-6(7H)-yl)-2,2,4,4-tetramethylcyclobutoxy)benzonitrile] it was 50 to 79%; in that of `CC1(C)[C@H](Oc2ccc(C#N)c(Cl)c2)C(C)(C)[C@H]1N1Cc2nc(C#CC3CN(C4CCN(c5ccc6c(c5)C(=O)N(C5CCC(=O)NC5=O)C6=O)CC4)C3)ccc2C1=O` (stereo partly drawn) [Compound 319, 2-Chloro-4-((1r,3r)-3-(2-((1-(1-(2-(2,6-dioxopiperidin-3-yl)-1,3-dioxoisoindolin-5-yl)piperidine-4-yl)azelaic acid-3-yl)ethynyl)-5-oxo-5H-pyrrolo[3,4-b]pyridin-6(7H)-yl)-2,2,4,4-tetramethylcyclobutoxy)benzonitrile], under 25%; in that of `CC1(C)[C@H](Oc2ccc(C#N)c(Cl)c2)C(C)(C)[C@H]1N1Cc2nc(C#CC3CN(C4CCN(c5cc6c(cc5F)C(=O)N(C5CCC(=O)NC5=O)C6=O)CC4)C3)ccc2C1=O` (stereo partly drawn) [Compound 320, 2-Chloro-4-((1r,3r)-3-(2-((1-(1-(2-(2,6-dioxopiperidin-3-yl)-6-fluoro-1,3-dioxoisoindolin-5-yl)piperidine-4-yl)azelaic acid-3-yl)ethynyl)-5-oxo-5H-pyrrolino[3,4-b]pyridin-6(7H)-yl)-2,2,4,4-tetramethylcyclobutoxy)benzonitrile], 50 to 79%.
`N#Cc1ccc(O[C@H]2CC[C@H](N3Cc4nc(C#CC5CCN(C6CCN(c7ccc8c(c7)C(=O)N(C7CCC(=O)NC7=O)C8=O)CC6)CC5)ccc4C3=O)CC2)cc1Cl` (stereo partly drawn) [Compound 323] showed an inhibition at 0.1 µM of under 25%.
As to `N#Cc1ccc(O[C@H]2CC[C@H](N3Cc4nc(C#CC5CCN(C6CCN(c7cc8c(cc7F)C(=O)N(C7CCC(=O)NC7=O)C8=O)CC6)CC5)ccc4C3=O)CC2)cc1Cl` (stereo partly drawn) [Compound 324, 2-Chloro-4-((1r,4r)-4-(2-((1′-(2,6-dioxopiperidin-3-yl)-6-fluoro-1,3-dioxoisoindolin-5-yl)-1,4′-dipiperidine-4-yl)ethynyl)-5-oxo-5H-pyrrolo[3,4-b]pyridin-6(7H)-cyclohexaneoxy)benzonitrile], the inhibition at 0.1 µM is 25 to 49%.
Under `CC1(C)[C@H](Oc2ccc(C#N)c(Cl)c2)C(C)(C)[C@H]1N1Cc2nc(C#C[C@H]3CC[C@H](N4CCN(c5cc6c(cc5F)C(=O)N(C5CCC(=O)NC5=O)C6=O)CC4)CC3)ccc2C1=O` (stereo partly drawn) [Compound 326] stands 50 to 79%; under `CC1(C)[C@H](Oc2ccc(C#N)c(Cl)c2)C(C)(C)[C@H]1N1Cc2nc(C#CC3CC(NC4CCN(c5ccc6c(c5)C(=O)N(C5CCC(=O)NC5=O)C6=O)CC4)C3)ccc2C1=O` (stereo partly drawn) [Compound 327, 2-Chloro-4-((1r,3r)-3-(2-((3-(1-(2-(2,6-dioxopiperidin-3-yl)-1,3-dioxoisoindolin-5-yl)piperidine-4-ylamino)cyclobutyl)ethynyl)-5-oxo-5,7-dihydro-pyrrolo[3,4-b]pyridin-6-yl)-2,2,4,4-tetramethylcyclobutoxy)benzonitrile], 50 to 79%.
In the case of `CC1(C)[C@H](Oc2ccc(C#N)c(Cl)c2)C(C)(C)[C@H]1N1Cc2nc(C#CC3CC(NC4CCN(c5cc6c(cc5F)C(=O)N(C5CCC(=O)NC5=O)C6=O)CC4)C3)ccc2C1=O` (stereo partly drawn) [Compound 329] it was 50 to 79%.
